# Tests used:
# [1] = target: Serine/threonine-protein kinase DCLK2 (Homo sapiens) (UniProt Q8N568); experiment: Inhibition of DCAMKL2 (unknown origin) assessed as remaining activity at 10 uM by ATP-competition binding assay relative to control
# [2] = target: Dual specificity mitogen-activated protein kinase kinase 1 (Homo sapiens, UniProt Q02750); experiment: Inhibition of MAP2K1 in human HeLa cells lysate pre incubated for 15 mins followed by ATP acyl phosphate probe addition and measured after 10 mins by LC-MS/MS analysis; format: subcellular
# [3] = Inhibition of MAP3K5/MAP3K6/MAP3K15 in human HeLa cells lysate pre incubated for 15 mins followed by ATP acyl phosphate probe addition and measured after 10 mins by LC-MS/MS analysis; format: subcellular
# [4] = Inhibition of MSK1/2 in human HeLa cells lysate pre incubated for 15 mins followed by ATP acyl phosphate probe addition and measured after 10 mins by LC-MS/MS analysis; format: subcellular
# [5] = Inhibition of MST4/YSK1 in human HeLa cells lysate pre incubated for 15 mins followed by ATP acyl phosphate probe addition and measured after 10 mins by LC-MS/MS analysis; format: subcellular
# [6] = target: DNA-dependent protein kinase catalytic subunit (Homo sapiens, UniProt P78527); experiment: Inhibition of PRKDC in human HeLa cells lysate pre incubated for 15 mins followed by ATP acyl phosphate probe addition and measured after 10 mins by LC-MS/MS analysis; format: subcellular
# [7] = target: Serine/threonine-protein kinase SMG1 (Homo sapiens, UniProt Q96Q15); experiment: Inhibition of SMG1 in human HeLa cells lysate pre incubated for 15 mins followed by ATP acyl phosphate probe addition and measured after 10 mins by LC-MS/MS analysis; format: subcellular
# SRSF protein kinase 1 = SRSF protein kinase 1 (Homo sapiens, UniProt Q96SB4); experiment: Inhibition of SRPK1 in human HeLa cells lysate pre incubated for 15 mins followed by ATP acyl phosphate probe addition and measured after 10 mins by LC-MS/MS analysis; format: subcellular
# [8] = target: Tyrosine-protein kinase JAK1 (Homo sapiens, UniProt P23458); experiment: Inhibition of JAK1 domain 2 in human HeLa cells lysate pre incubated for 15 mins followed by ADP acyl phosphate probe addition and measured after 10 mins by LC-MS/MS analysis; format: subcellular
# [9] = target: Serine/threonine-protein kinase 4 (Homo sapiens, UniProt Q13043); experiment: Inhibition of MST1 in human HeLa cells lysate pre incubated for 15 mins followed by ADP acyl phosphate probe addition and measured after 10 mins by LC-MS/MS analysis; format: subcellular
# [10] = target: PAN2-PAN3 deadenylation complex subunit PAN3 (Homo sapiens, UniProt Q58A45); experiment: Inhibition of PAN3 in human HeLa cells lysate pre incubated for 15 mins followed by ADP acyl phosphate probe addition and measured after 10 mins by LC-MS/MS analysis; format: subcellular
# [11] = target: T1, Serine/threonine-protein kinase Sgk3 (Homo sapiens) (UniProt Q96BR1); experiment: Inhibition of SGK3 in human HeLa cells lysate at 10 uM pre incubated for 15 mins followed by ADP acyl phosphate probe addition and measured after 10 mins by LC-MS/MS analysis relative to control; format: subcellular; details: time 25.0 min
# T1 sequence (whole entry): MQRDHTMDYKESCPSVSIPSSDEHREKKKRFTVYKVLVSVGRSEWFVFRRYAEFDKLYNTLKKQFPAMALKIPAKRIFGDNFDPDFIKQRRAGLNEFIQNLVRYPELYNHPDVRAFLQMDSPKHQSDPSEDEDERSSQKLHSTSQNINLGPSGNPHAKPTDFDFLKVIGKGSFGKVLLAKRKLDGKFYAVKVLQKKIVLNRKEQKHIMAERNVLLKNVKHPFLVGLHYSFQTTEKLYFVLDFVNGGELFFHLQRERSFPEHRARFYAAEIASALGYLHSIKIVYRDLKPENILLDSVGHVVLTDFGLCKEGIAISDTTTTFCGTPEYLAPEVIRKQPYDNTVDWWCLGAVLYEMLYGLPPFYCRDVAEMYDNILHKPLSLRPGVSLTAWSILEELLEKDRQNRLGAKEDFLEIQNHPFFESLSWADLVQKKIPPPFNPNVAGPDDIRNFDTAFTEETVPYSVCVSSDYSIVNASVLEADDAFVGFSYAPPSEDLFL
# [12] = target: Serine/threonine-protein kinase 38-like (Homo sapiens, UniProt Q9Y2H1); experiment: Inhibition of NDR2 in human HeLa cells lysate at 2 uM pre incubated for 15 mins followed by ADP acyl phosphate probe addition and measured after 10 mins by LC-MS/MS analysis relative to control; format: subcellular; details: time 25.0 min
# RPS6KA1/RPS6KA2/RPS6KA3 = RPS6KA1/RPS6KA2/RPS6KA3 (Homo sapiens, UniProt P51812+Q15349+Q15418); experiment: Inhibition of RSK1/2/3 in human HeLa cells lysate at 2 uM pre incubated for 15 mins followed by ADP acyl phosphate probe addition and measured after 10 mins by LC-MS/MS analysis relative to control; format: subcellular; details: time 25.0 min
# [13] = target: Ribosomal protein S6 kinase alpha-3 (Homo sapiens, UniProt P51812); experiment: Inhibition of RSK2 domain 1 in human HeLa cells lysate at 2 uM pre incubated for 15 mins followed by ADP acyl phosphate probe addition and measured after 10 mins by LC-MS/MS analysis relative to control; format: subcellular; details: time 25.0 min
# [14] = target: T2, Phosphorylase b kinase gamma catalytic chain, liver/testis isoform (Homo sapiens) (UniProt P15735); experiment: Inhibition of PHKg2 in human HeLa cells lysate at 50 uM pre incubated for 15 mins followed by ATP acyl phosphate probe addition and measured after 10 mins by LC-MS/MS analysis relative to control; format: subcellular; details: time 25.0 min
# T2 sequence (whole entry): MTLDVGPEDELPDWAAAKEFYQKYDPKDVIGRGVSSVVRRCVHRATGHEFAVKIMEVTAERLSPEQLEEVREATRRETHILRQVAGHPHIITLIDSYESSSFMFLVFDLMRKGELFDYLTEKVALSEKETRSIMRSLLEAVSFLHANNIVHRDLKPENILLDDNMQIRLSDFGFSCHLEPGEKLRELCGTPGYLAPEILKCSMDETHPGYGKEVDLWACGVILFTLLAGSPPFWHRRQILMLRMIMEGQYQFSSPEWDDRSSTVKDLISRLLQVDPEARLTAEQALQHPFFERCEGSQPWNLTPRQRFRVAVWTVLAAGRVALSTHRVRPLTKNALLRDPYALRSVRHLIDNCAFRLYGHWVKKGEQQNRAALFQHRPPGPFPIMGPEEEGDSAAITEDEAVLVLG
# [15] = target: p38 delta/gamma (Homo sapiens) (UniProt O15264+P53778); experiment: Inhibition of p38d/p38g in human HeLa cells lysate at 10 uM pre incubated for 15 mins followed by ATP acyl phosphate probe addition and measured after 10 mins by LC-MS/MS analysis relative to control; format: subcellular; details: time 25.0 min
# Wee1-like protein kinase = Wee1-like protein kinase (Homo sapiens, UniProt P30291); experiment: Inhibition of Wee1 in human HeLa cells lysate at 2 uM pre incubated for 15 mins followed by ATP acyl phosphate probe addition and measured after 10 mins by LC-MS/MS analysis relative to control; format: subcellular; details: time 25.0 min
# [16] = Half life in Sprague-Dawley rat at 1 mg/kg, iv measured up to 8 hrs by LC-MS/MS analysis; format: ADME, organism-based; details: in vivo
# [17] = Toxicity in C57Bl/6 mouse assessed as effect on locomotor activity at 50 mg/kg, ip for 14 days; format: organism-based; details: in vivo, 336 h, time 14 day
# Sequence of Wee1-like protein kinase (P30291 whole entry, looked up): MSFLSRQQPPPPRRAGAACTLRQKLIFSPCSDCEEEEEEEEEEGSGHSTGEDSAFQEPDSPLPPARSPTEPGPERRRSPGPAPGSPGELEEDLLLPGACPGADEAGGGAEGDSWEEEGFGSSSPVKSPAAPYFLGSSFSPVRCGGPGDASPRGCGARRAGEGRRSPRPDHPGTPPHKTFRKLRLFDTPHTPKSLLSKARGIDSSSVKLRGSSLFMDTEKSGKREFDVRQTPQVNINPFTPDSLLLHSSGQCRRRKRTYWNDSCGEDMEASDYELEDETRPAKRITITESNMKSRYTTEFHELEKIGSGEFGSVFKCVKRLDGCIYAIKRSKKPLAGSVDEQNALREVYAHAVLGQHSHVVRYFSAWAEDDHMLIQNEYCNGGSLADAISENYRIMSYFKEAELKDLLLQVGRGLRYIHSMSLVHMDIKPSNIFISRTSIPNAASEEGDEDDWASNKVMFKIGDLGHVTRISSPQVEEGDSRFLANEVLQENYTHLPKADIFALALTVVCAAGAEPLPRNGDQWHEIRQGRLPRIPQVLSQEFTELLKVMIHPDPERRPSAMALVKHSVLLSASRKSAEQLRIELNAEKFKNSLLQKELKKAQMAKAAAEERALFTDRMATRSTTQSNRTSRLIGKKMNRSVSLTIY
# Sequence of Ribosomal protein S6 kinase alpha-3 (P51812 whole entry, the tested form may be a part, canonical isoform): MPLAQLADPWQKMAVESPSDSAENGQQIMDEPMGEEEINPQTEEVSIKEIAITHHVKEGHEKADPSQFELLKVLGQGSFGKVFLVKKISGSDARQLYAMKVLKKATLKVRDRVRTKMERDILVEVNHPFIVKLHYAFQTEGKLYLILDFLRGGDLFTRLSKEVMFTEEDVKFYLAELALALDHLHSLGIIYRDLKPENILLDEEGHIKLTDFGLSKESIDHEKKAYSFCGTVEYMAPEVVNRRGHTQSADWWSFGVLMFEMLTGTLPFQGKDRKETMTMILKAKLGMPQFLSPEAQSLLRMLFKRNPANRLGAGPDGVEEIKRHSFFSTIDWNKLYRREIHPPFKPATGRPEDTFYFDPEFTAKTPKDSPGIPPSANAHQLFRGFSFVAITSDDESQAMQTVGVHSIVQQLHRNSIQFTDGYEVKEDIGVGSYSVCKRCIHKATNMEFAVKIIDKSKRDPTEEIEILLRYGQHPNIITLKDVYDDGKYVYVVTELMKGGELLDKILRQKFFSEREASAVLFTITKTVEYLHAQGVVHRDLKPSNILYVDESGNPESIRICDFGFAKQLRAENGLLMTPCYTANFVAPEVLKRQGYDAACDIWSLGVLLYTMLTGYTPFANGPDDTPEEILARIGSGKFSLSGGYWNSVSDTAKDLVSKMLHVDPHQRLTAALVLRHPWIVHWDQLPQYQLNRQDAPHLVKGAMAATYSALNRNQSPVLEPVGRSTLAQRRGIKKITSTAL
# Sequence of RPS6KA1/RPS6KA2/RPS6KA3 (P51812 whole entry, looked up, the tested form may be a part): as the sequence (P51812 whole entry, the tested form may be a part, canonical isoform) above
# Sequence of RPS6KA1/RPS6KA2/RPS6KA3 (Q15349 whole entry, looked up, the tested form may be a part): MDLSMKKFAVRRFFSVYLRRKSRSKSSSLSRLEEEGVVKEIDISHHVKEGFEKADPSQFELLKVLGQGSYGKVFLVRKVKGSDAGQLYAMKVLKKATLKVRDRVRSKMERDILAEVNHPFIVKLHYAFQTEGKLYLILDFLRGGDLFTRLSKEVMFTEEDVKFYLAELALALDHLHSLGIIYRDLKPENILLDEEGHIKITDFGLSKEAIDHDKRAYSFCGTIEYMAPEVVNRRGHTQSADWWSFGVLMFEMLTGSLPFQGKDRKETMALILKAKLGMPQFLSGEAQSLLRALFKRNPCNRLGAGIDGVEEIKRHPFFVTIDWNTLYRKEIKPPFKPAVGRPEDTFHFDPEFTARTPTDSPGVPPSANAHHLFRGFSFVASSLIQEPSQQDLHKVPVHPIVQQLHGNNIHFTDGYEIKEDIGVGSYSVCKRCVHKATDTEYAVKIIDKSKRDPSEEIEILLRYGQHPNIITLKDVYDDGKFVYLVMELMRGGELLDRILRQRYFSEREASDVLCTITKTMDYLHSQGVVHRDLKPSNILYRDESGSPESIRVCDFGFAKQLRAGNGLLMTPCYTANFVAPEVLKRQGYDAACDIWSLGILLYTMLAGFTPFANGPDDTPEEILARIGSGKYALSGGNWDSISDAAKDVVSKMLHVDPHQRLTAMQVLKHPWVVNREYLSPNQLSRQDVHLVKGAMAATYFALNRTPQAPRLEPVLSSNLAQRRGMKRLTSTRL
# Sequence of RPS6KA1/RPS6KA2/RPS6KA3 (Q15418 whole entry, looked up, the tested form may be a part): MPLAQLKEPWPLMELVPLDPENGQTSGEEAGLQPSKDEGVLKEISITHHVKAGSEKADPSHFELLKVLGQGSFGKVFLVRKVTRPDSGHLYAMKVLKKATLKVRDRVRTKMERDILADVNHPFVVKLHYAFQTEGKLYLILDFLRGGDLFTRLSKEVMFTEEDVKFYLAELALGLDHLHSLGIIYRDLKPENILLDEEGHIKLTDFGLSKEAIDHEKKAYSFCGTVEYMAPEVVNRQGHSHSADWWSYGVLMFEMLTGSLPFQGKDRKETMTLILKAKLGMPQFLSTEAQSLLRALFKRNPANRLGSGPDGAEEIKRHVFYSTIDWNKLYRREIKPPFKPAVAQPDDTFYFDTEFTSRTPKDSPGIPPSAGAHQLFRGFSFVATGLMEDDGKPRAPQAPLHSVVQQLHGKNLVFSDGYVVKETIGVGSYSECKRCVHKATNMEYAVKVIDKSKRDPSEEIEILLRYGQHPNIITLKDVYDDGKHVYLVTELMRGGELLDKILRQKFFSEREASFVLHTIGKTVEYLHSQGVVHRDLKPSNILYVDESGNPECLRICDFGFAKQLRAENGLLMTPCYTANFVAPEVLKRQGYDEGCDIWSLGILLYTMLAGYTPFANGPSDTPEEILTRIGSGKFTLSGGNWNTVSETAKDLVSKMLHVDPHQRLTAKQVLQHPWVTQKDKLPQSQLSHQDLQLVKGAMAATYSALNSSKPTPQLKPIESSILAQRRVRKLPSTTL
# Sequence of Tyrosine-protein kinase JAK1 (P23458 whole entry, the tested form may be a part): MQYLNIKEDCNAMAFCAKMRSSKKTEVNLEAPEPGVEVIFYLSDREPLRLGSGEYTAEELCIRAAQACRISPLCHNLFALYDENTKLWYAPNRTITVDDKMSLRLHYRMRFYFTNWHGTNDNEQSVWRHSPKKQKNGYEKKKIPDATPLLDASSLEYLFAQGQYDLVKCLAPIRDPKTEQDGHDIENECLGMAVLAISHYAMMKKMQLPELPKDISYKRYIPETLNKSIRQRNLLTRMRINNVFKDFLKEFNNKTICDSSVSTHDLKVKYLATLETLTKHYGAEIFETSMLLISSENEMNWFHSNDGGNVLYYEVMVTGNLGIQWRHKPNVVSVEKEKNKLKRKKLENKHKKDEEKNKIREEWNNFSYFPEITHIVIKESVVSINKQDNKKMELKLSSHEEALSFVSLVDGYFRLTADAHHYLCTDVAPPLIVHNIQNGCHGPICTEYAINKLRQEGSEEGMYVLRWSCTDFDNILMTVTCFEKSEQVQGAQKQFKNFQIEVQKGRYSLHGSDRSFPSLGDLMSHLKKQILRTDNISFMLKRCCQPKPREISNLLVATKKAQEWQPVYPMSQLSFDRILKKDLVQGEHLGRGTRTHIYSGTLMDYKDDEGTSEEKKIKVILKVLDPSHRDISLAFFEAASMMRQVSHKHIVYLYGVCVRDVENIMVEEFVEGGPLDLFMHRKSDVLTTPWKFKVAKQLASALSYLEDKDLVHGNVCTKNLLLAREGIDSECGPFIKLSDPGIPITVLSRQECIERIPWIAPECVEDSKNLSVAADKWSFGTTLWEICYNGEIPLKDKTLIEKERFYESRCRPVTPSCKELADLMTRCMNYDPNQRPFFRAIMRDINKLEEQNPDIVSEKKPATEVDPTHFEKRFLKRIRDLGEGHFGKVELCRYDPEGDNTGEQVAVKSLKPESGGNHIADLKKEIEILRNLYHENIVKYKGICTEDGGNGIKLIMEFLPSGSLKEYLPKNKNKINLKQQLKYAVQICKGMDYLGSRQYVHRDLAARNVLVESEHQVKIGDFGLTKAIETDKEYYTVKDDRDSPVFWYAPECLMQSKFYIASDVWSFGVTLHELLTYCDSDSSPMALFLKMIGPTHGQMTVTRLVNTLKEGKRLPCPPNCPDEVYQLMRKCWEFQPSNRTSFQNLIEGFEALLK
# Sequence of SRSF protein kinase 1 (Q96SB4 whole entry, the tested form may be a part): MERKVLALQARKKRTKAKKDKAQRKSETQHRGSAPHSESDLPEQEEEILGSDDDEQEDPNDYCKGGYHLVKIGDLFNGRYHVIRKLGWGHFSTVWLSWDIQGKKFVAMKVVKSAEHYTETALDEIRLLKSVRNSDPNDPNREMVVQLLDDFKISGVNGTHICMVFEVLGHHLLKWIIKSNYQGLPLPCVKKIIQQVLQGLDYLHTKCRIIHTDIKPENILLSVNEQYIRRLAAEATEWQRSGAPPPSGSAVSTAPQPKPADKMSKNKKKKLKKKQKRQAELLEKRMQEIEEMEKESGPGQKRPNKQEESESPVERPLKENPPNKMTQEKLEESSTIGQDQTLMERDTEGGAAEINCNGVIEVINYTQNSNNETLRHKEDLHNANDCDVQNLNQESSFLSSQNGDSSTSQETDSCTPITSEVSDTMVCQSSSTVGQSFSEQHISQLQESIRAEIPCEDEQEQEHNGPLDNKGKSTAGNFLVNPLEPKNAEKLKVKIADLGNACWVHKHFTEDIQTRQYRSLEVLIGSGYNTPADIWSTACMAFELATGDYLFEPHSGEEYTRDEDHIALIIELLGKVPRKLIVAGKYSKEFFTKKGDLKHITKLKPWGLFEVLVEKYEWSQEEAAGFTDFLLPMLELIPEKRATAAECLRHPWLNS
structure (smiles),measurement,setting,value
CCOc1cc(N2CCC(O)CC2)ccc1Nc1ncc2c(n1)N(C)c1ccccc1C(=O)N2C,Activity,[1],0.65%
same,IC50,[2],> 50 µM
same,IC50,[3],> 50 µM
same,IC50,[4],> 50 µM
same,IC50,[5],> 50 µM
same,IC50,[6],> 50 µM
same,IC50,[7],> 50 µM
same,IC50,SRSF protein kinase 1,> 50 µM
same,IC50,[8],> 50 µM
same,IC50,[9],> 50 µM
same,IC50,[10],> 50 µM
same,inhibition,[11],-0.3%
same,inhibition,[12],11.7%
same,inhibition,RPS6KA1/RPS6KA2/RPS6KA3,9.4%
same,inhibition,[13],4.9%
same,inhibition,[14],8.5%
same,inhibition,[15],100%
same,inhibition,Wee1-like protein kinase,-5.2%
same,half-life,[16],2 h
same,Activity,[17],Non-Toxic
